These are literature values, as cited in patent publication US12557816B2, “Compositions for controlling a plant disease” (NutriAg Ltd., priority 2017, dated 2026).

The conditions of the data set: phosphorous acid: second dissociation; hydrogen phosphite ion: conjugate base.

With `OP(O)O` [Phosphorous acid, phosphorous acid], the pKa entry was “about 1.3”.
For the molecule “hydrogen phosphite [hydrogen phosphite (or phosphonate) ion]”, the pKa entry is given as “about 6.7”.
